# Measured values from patent US20080045495A1, “Treatment of Patients with Cystic Disease by Alteration of Fibrocystin Proteolysis” (BOARD OF REGENTS, THE UNIVERSITY OF TEXAS SYSTEM, priority 2006, published 2008).
# Square brackets hold non-standard residues; d marks the D form. Peptide text beside a SMILES is read from it. * marks the point of attachment. Nle = CCCC[C@H](N)C(=O)O; Cbz = O=C(OCc1ccccc1)*
# Legend:
# Format in all cases: cell-based, human
# [1] = system: fibrocystin cleavage in HEK-293 cells; assay: Luciferase reporter assay of fibrocystin cleavage (pFC-GV / pG5-luc) in HEK-293 cells; conditions: for cleavage of fibrocystin or stability of proteolytic fragments (luciferase activity): HEK-293, 12 hours
# Method: (§1) Reporter Gene Assays—mIMCD-3 cells, HEK-293 cells, or HeLa cells were plated in 6-well dishes (3×10^5 cells/well) and cotransfected with 0.05 μg phRL-TK(Int−) encoding Renilla luciferase (Promega, Madison, Wis.), 0.1 μg Photinus luciferase reporter plasmids, and 0.01-0.3 μg effector plasmids. Luciferase assays were performed as described previously (Hiesberger, 2004). Relative luciferase activity was calculated as the ratio of Photinus and Renilla luciferase.
# (§2) FIG. 4 A is an image of a gel illustrating mIMCD3/FC cells were grown for 4 days and incubated with 0.1 μM thapsigargin (lane 2), 5 mM caffeine (lane 3), 75 μM dantrolene (lane 5), 200 μM ruthenium red (lane 7), or no additions (lanes 1, 4 and 6). After 2 hours, media were replaced with media lacking serum but containing the same supplements, and, in addition, 10 nM mifeprisone. Cell lysates were prepared after 24 hours and analyzed by immunoblotting using anti-V5 antibody. FIG. 4B is a graph of mIMCD-3 cells were transfected with 0.2 μg pG5-luc and either 0.2 μg pFC-GV or 0.2 μg pLDLR-GV. After 24 hours, cells were incubated in serum-free media in the presence or absence of 75 μM dantrolene. Relative luciferase activity was determined after 48 h. Data presented are mean ±SE of three separate transfections. The fibrocystin/Gal4-VP16 fusion protein is shown schematically below. Shaded box indicates the transmembrane segment; filled boxes indicate the N-terminal signal sequence and the C-terminal Gal4-VP16 fusion protein. FIG. 4C is an image of a gel illustrating HEK-293 cells transfected with 6 μg pFC-V5, and 8 hours later incubated in serum-free media containing 1-8 mM caffeine, 0.5 μM calphostin, or no additions. Cells were lysed after 16 h, and extracts were analyzed by immunoblotting using anti-V5 antibody. FIG. 4D is a graph of HEK-293 cells transfected with 0.2 μg pFC-GV and 0.2 μg pG5-luc. After 24 hours, cells were incubated in serum-free media containing 5 mM caffeine or no additions. Luciferase activity was measured after 12 hours. Data presented are mean ±SE of three separate transfections. FIG. 4E is an image of a gel illustrating HEK-293 cells stably expressing the m3 muscarinic receptor (lanes 1-4) and untransfected HEK-293 cells (lanes 5-8) were transfected with 6 μg pFC-V5. […] Cells were lysed after 16 hours, and extracts were analyzed by immunoblotting using anti-V5 antibody.
# To quantitatively measure fibrocystin cleavage, a luciferase assay was developed that was similar to the ones employed to quantify the proteolytic cleavage of amyloid precursor protein (APP) and low density lipoprotein receptor related protein-1 (LRP1) (Cao, 2001; May, 2003). A plasmid (FC-GV) encoding the synthetic transcription factor Gal4-VP16 fused to the C-terminus of fibrocystin was generated. Proteolytic cleavage of the fibrocystin fusion protein releases Gal4-VP16, which translocates to the nucleus and activates a Gal4-responsive luciferase reporter gene (pG5-luc). Therefore, luciferase expression correlates with fibrocystin cleavage.
# To quantify fibrocystin proteolysis in response to intracellular Ca^2+ release, the luciferase reporter assay was employed. HEK-293 cells were cotransfected with the plasmids pFC-GV and pG5-luc and incubated with either 5 mM caffeine or vehicle (as a control).
# FIG. 5A is an image of a gel that illustrates HEK-293 cells were transfected with 6 μg pFC-V5.
# [2] = system: fibrocystin cleavage in mIMCD3/FC cells; assay: Immunoblot (anti-V5) of fibrocystin proteolytic fragments in mIMCD3/FC cells; conditions: 30 hours; for cleavage of fibrocystin or stability of proteolytic fragments: FIG. 9
# [3] = system: fibrocystin cleavage in HEK-293 cells; assay: Immunoblot (anti-V5) of fibrocystin proteolysis in HEK-293 cells transfected with pFC-V5
# Method: as §2
# FIG. 5A is an image of a gel that illustrates HEK-293 cells were transfected with 6 μg pFC-V5. […] Fourteen hours later, cellular proteins were extracted and analyzed by immunoblotting using anti-V5 antibody. FIG. 5B is an image of a gel mIMCD3/FC cells were grown for 4 days, and expression of fibrocystin was induced by addition of 10 nM mifepristone. After 24 hours, media were supplemented with 0.1, 0.5, or 1 μM calphostin C. Thirty hours later, cells were harvested, and proteins were analyzed by immunoblotting using anti-V5 antibody. FIG. 5C is an image of a gel illustrating HEK-293 cells were transfected with 3 μg pFC-V5 and either 3 μg of the empty vector pEF-neo (lanes 1 and 3) or 3 μg pEF-PKCαA/E (lanes 2 and 4). After 12 hours media were changed to media containing 10% FCS (lanes 1 and 2) or 0.2% BSA (lanes 3 and 4). Forty-eight hours later, cells were harvested, and proteins were subjected to immunoblotting using anti-V5 antibody. FIG. 5D is a plot illustrating HEK-293 cells transfected with 0.2 μg pG5-luc and 0.2 μg pFC-GV, pLDLR-GV and/or pEF-PKCαA/E. After 16 hours, media were changed to serum-free media containing 100 nM PMA or 500 μM Br-cAMP. Twenty-four hours later, cells were harvested, and relative luciferase activities were determined. Data are the mean ±SE of three independent transfections.
# [4] = system: fibrocystin cleavage in mIMCD3/FC cells; assay: Immunoblot (anti-V5) of fibrocystin proteolytic fragments in mIMCD3/FC cells; conditions: FIG. 4A
# Method: Cell Culture, Transfection and Generation of Stable Cell Lines—mIMCD-3 cells were plated at a density of 500,000 cells/100 mm dish, and 24 hours and 48 hours later the cells were transfected with 2 μg of pFC-V5 using Effectene (Qiagen, Valencia, Calif.). Cells were incubated for an additional 72 hours and lysed in 100 μl buffer containing Tris-buffered saline, 0.5% Triton X-100, protease inhibitor cocktail (Hoffmann-La Roche Inc., Indianapolis, Ind.). Twenty μl of the lysates were analyzed by SDS-PAGE, and immunoblot analysis was performed using HRP-conjugated anti-V5 as described previously (Hiesberger, 2005). mIMCD3/FC and mIMCD3/EGFP cell lines with inducible expression of fibrocystin and EGFP, respectively, were produced by transfecting mIMCD-3 cells with 1.5 μg pSwitch and either 1.5 μg pGeneFC or 1.5 μg pGeneEGFP. Stable transfectants were isolated after 14 days of growth in media containing hygromycin (350 μg/ml) and zeocin (300 μg/ml). To test for inducible expression, cells derived from individual clones were treated with mifepristone (10 nM) for 48 h or left untreated, and proteins were analyzed by immunoblotting using HRP-conjugated anti-FLAG. HEK-293 cells stably transfected with the muscarinic acetylcholine receptor M3 were a generous gift from Trevor Shuttleworth (University of Rochester Medical center) (Yang, 1995).
# To further investigate the proteolytic cleavage of fibrocystin, mIMCD3/FC cells were generated, in which the expression of recombinant human fibrocystin can be induced by treatment with mifepristone.
# FIG. 4 A is an image of a gel illustrating mIMCD3/FC cells were grown for 4 days and incubated with 0.1 μM thapsigargin (lane 2), 5 mM caffeine (lane 3), 75 μM dantrolene (lane 5), 200 μM ruthenium red (lane 7), or no additions (lanes 1, 4 and 6). After 2 hours, media were replaced with media lacking serum but containing the same supplements, and, in addition, 10 nM mifeprisone. Cell lysates were prepared after 24 hours and analyzed by immunoblotting using anti-V5 antibody. FIG. 4B is a graph of mIMCD-3 cells were transfected with 0.2 μg pG5-luc and either 0.2 μg pFC-GV or 0.2 μg pLDLR-GV. After 24 hours, cells were incubated in serum-free media in the presence or absence of 75 μM dantrolene. Relative luciferase activity was determined after 48 h. Data presented are mean ±SE of three separate transfections. The fibrocystin/Gal4-VP16 fusion protein is shown schematically below. […] Cells were lysed after 16 h, and extracts were analyzed by immunoblotting using anti-V5 antibody. […] Luciferase activity was measured after 12 hours. […] Cells were lysed after 16 hours, and extracts were analyzed by immunoblotting using anti-V5 antibody. […]
# [5] = system: fibrocystin cleavage in mIMCD-3 cells; assay: Luciferase reporter assay of fibrocystin cleavage (pFC-GV / pG5-luc) in mIMCD-3 cells; conditions: 75 μM dantrolene, serum-free media, luciferase after 48 h, FIG. 4B
# Method: as §1
# FIG. 4 A is an image of a gel illustrating mIMCD3/FC cells were grown for 4 days and incubated with 0.1 μM thapsigargin (lane 2), 5 mM caffeine (lane 3), 75 μM dantrolene (lane 5), 200 μM ruthenium red (lane 7), or no additions (lanes 1, 4 and 6). […] Cell lysates were prepared after 24 hours and analyzed by immunoblotting using anti-V5 antibody. […] Relative luciferase activity was determined after 48 h. […] Cells were lysed after 16 h, and extracts were analyzed by immunoblotting using anti-V5 antibody. […] Luciferase activity was measured after 12 hours. […] Cells were lysed after 16 hours, and extracts were analyzed by immunoblotting using anti-V5 antibody.
# To quantitatively measure fibrocystin cleavage, a luciferase assay was developed that was similar to the ones employed to quantify the proteolytic cleavage of amyloid precursor protein (APP) and low density lipoprotein receptor related protein-1 (LRP1) (Cao, 2001; May, 2003). […]
# [6] = 0.1, 0.5, or 1 μM calphostin C 24 hours after induction, FIG. 5B
compound,measurement,setting,value
C=C1[C@@H](C)[C@H]2[C@H](Cc3ccccc3)NC(=O)[C@]23OC(=O)/C=C/[C@H](O)CCC[C@@H](C)C/C=C/[C@H]3[C@@H]1O [Cytochalasin B],cleavage of fibrocystin or stability of proteolytic fragments (luciferase activity),"[1]; 10 μM Cytochalasin B, FIG. 11",modulated
"CC(C)C[C@@H](C=O)NC(=O)[C@H](CC(C)C)NC(=O)[C@@H](NC(=O)OCc1ccccc1)C(C)C [Z-VLL-CHO, Z-Val-Leu-Leu-CHO] (Cbz-Val-Leu-Leu-aldehyde)",cleavage of fibrocystin or stability of proteolytic fragments,[2]; 15 μM Z-VLL-CHO,altered
"CCCCCCCCCCCCCC(=O)O[C@@H]1[C@@H](C)[C@@]2(O)[C@@H](C=C(CO)C[C@]3(O)C(=O)C(C)=C[C@@H]23)[C@@H]2C(C)(C)[C@]12OC(C)=O [PMA, phorbol 12-myristate 13-acetate]",proteolytic cleavage of fibrocystin,"[3]; 100 nM PMA, HEK-293, 14 hours, FIG. 5A",marked increase
same,total expression of fibrocystin (CMV promoter),"[3]; 100 nM PMA, HEK-293, FIG. 5A",increased
same,increase of luciferase activity,"[1]; 100 nM PMA, serum-free media, HEK-293, 24 hours, FIG. 5D",27 fold
"CCCC[C@@H](C=O)NC(=O)[C@H](CC(C)C)NC(=O)[C@H](CC(C)C)NC(C)=O [ALLN, Ac-Leu-Leu-Nle-CHO] (Ac-Leu-Leu-[Nle]-aldehyde)",cleavage of fibrocystin or stability of proteolytic fragments,[2]; 10 μM ALLN,altered
same,abundance of fibrocystin proteolytic fragments,"[3]; 10 μM ALLN versus vehicle, 14 hours, HEK-293, FIG. 8",alteration of the abundance
NCCOB(c1ccccc1)c1ccccc1 [2-APB],cleavage of fibrocystin or stability of proteolytic fragments (luciferase activity),"[1]; 50 μg/ml 2-APB, FIG. 11",modulated
N.N.N.N.N.N.N.N.N.N.N.N.N.N.[Cl-].[Cl-].[Cl-].[Cl-].[Cl-].[Cl-].[O-2].[O-2].[Ru+3].[Ru+3].[Ru+4] [ruthenium red],formation of FCA,[4]; pretreatment with 200 μM ruthenium red,abolished
"CC(C)C[C@@H](C=O)NC(=O)[C@H](CC(C)C)NC(=O)[C@H](CC(C)C)NC(=O)OCc1ccccc1 [MG-132, Carbobenzoxy-L-leucyl-L-leucyl-L-leucinal] (Cbz-Leu-Leu-Leu-aldehyde)",fibrocystin cleavage products,"[2]; 2 μM MG-132 in combination with 20 μM ATP, FIG. 7",increased presence of cleavage products
same,fibrocystin cleavage products,"[2]; 2 μM MG-132 versus vehicle, FIG. 6",increase of fibrocystin cleavage products
CC(=O)O[C@H]1C(=O)[C@@]2(C)[C@H]([C@H](OC(=O)c3ccccc3)[C@]3(O)C[C@H](OC(=O)[C@H](O)[C@@H](NC(=O)c4ccccc4)c4ccccc4)C(C)=C1C3(C)C)[C@]1(OC(C)=O)CO[C@@H]1C[C@@H]2O [Taxol],cleavage of fibrocystin or stability of proteolytic fragments (luciferase activity),"[1]; Taxol in serum-free media, FIG. 10",modulated
calphostin C,expression levels of fibrocystin,[2]; [6],did not alter
same,fibrocystin proteolysis,[2]; [6],dose-dependent inhibition
same,caffeine-induced fibrocystin proteolysis,"[3]; 0.5 μM calphostin with caffeine, HEK-293, FIG. 4C",prevented
same,PMA-induced increase of proteolytic cleavage,"[3]; pretreatment with 0.5 μM calphostin C, 100 nM PMA, HEK-293, FIG. 5A",prevented
C[N+](C)(C)CCOC(N)=O [carbachol],fibrocystin cleavage,"[3]; 100 μM carbachol, HEK-293 cells without m3 receptor, 16 hours, FIG. 4E",only in HEK-293(m3) cells
COC(=O)Nc1nc2ccc(C(=O)c3cccs3)cc2[nH]1 [Nocodazole],cleavage of fibrocystin or stability of proteolytic fragments (luciferase activity),"[1]; 10 μg/ml Nocodazole, FIG. 11",modulated
C/C1=C/C(=O)O[C@@H]2C[C@@H](CC[C@H](C)/C=C\CC1)O[C@@](O)([C@@H]1CSC(=O)N1)C2 [Latrunculin B],cleavage of fibrocystin or stability of proteolytic fragments (luciferase activity),"[1]; 2 μg/ml Latrunculin, FIG. 11",modulated
O=C1CN(/N=C/c2ccc(-c3ccc([N+](=O)[O-])cc3)o2)C(O)=N1 [dantrolene],increase in luciferase activity (FC-GV versus LDLR-GV),[5],abolished
same,formation of FCA,[4]; 75 μM dantrolene,abolished
C/C=C(/C)C(=O)O[C@H]1C(C)=C2[C@H]([C@@H]1OC(=O)CCCCCCC)[C@@](C)(OC(C)=O)C[C@H](OC(=O)CCC)[C@@]1(O)[C@H]2OC(=O)[C@@]1(C)O [thapsigargin],generation of the FCA fragment,"[4]; pretreatment with 0.1 μM thapsigargin, lysates after 24 hours",abolished
